A word on the EC50: it is the concentration needed to bring the measured effect to its halfway point. The IC50 is the concentration that inhibits the measured activity by half.

In brackets after ≈: the same amount, converted by molar mass. Read-outs that look alike come from different tables or passages of the source.

For series [1] the following is noted: cited from earlier work.
A short description of series [2]: Storage stability: degradation products by liquid chromatography with UV detection. It is filed as physicochemical. The procedure: (§1) Methods to detect PCA are known in the art, such as by liquid chromatography with UV detection. For example, a solution containing PCA is subjected to liquid chromatography using gradient elution with the following conditions: stainless steel column with stationary phase end-capped octadecylsilyl silica for chromatography R; size (150×3.9) mm, particle size 5 micron. Mobile phase A: 0.1% phosphoric acid v/v; mobile phase B—methanol; column temperature: 25° C.; flow rate: 1 mL/min.; UV detection at 254 nm. Relative retention time is 1.00 for quercetin, and 0.34 for PCA (FIG. 2). Content of PCA relative to quercetin can be calculated by formula (in percentage): […]
as §1, with “detect 2,4,6-THBA” for “detect PCA”, “containing 2,4,6-THBR” for “containing PCA”, “for 2,4,6-trihydroxybenzoic acid” for “for PCA”, “of 2,4,6-trihydroxybenzoic acid” for “of PCA”
Methods to detect DB-DBA are known in the art, such as by liquid chromatography with UV detection. For example, a solution containing DB-DBA is subjected to liquid chromatography using gradient elution with the following conditions: stainless steel column with stationary phase end-capped octadecylsilyl silica for chromatography R; size (150×3.9) mm, particle size 5 microns. Mobile phase A: 0.1% phosphoric acid v/v; mobile phase B—methanol; column temperature: 25° C.; flow rate: 1 mL/min.; UV detection at 254 nm. Relative retention time is 1.00 for quercetin, and 0.77 for DB-DBA (FIG. 15). Content of DB-DBA relative to quercetin can be calculated by formula (in percentage):
For test solution content of one vial with 70 ml of 96% ethanol was transferred to a 100 ml volumetric flask, diluted to 100 ml with the same solvent and mixed. For reference solution a, 1.0 ml of test solution was placed in a 100 ml volumetric flask, diluted to 100 ml with 96% ethanol and mixed. For reference solution b, 10.0 mg working standard of quercetin for system suitability (containing isorhamnetin and kaempferol, PJSC SIC “Borshchahivskiy CPP”, Kiev, Ukraine) was dissolved in 30 ml of 96% ethanol, diluted to 50 ml with the same solvent and mixed. Chromatography was performed on a using a Dionex UltiMate 3000 HPLC system (Thermo Fisher Scientific, Inc., Waltham, Mass.) with DAD and MS detectors (3200 QTRAP System (AB Sciex LLC, Framingham, Mass.)) connected consecutively using gradient elution with the following conditions: • stainless steel column with stationary phase end-capped octadecylsilyl silica for chromatography; size (150×3.9) mm, particle size 5 microns • Mobile phase A: 1.0 mL of phosphoric acid diluted to 1000 mL with water for chromatography, mixed and degassed; • Mobile phase B: methanol gradient grade; • Column temperature: 25° C. • Flow rate: 1 mL/min.; • Detection at 254 nm; • injection volume: 10 microL.
Inject test solution and reference solution (a). Peaks of quercetin and kaempferol as references were determined by relative retention times of 1.00 and 1.11
Vials containing (group 1) a lyophilized quercetin (10%)/PVP (90%) composition in an air atmosphere and (group 2) vials containing a lyophilized quercetin (10%)/PVP (90%) composition in a nitrogen gas atmosphere were stored at room temperature. Samples were obtained for each group at the indicated time points (0, 3, 6, 9, 12, 18, 24, and 36 months) and assayed for content of protocatechuic acid by chromatography as described above. Data from 3 independent experiments are shown. […]

For series [3] the following is noted: humans, cited from earlier work.
Series [4] concerns cyclin-dependent kinases CDK1, 2, 4, 6. The conditions noted are these: purified CDKs in vitro; cited from earlier work.
Series [5] deals with Daphnia magna. The settings on record: cited from earlier work; for EC50 at 48 h: Daphnia magna mobility.
The subject of series [6] is Pseudokirchneriella subcapitata.
The subject of series [7] is Daphnia magna. Kind of series: Daphnia magna mobility assay. The conditions noted are these: 48 h.
Procedure: Toxicity is determined using a Daphnia magna mobility assay as described (Kamaya et al., 2005). Neonates (<24 h old) from 2-3-week-old mothers are placed in a 50 ml glass beaker containing 40 ml of a test solution. A sample of solid form quercetin (10%)/PVP (90%) composition containing 2,4,6-trihydroxybenzoic acid is resuspended and introduced at increasing dilutions. All experiments for exposure and controls without chemicals are made in four replicates and performed at 21±0.3° C. under 16 h light:8 h dark photoperiod. Immobility is used as the endpoint for determining acute toxicity; the daphnids showing no movement within 15 s after gentle stirring are defined to be immobile. After 24 and 48 h, the number of immobile daphnids is recorded to determine the concentration able to achieve 50% immobilization and it is indicated as EC50.
The conditions of series [8]: human.
Procedure: Potential human toxicity of 2,4,6-THBA can be related to its toxicity based on studies with Daphnia. Toxicity of various compounds in Daphnia (48 h immobilization test) correlated to toxicity in humans (determined as reference dose for human oral exposure, RfD) (Martins et al., 2007).
A further series deals with HCT-116 human cells. The settings on record: cited from earlier work.
Series [9] concerns Pseudokirchneriella subcapitata. The settings on record: cited from earlier work.
The subject of series [10] is MDA-MB231 human breast cancer cells. Kind of series: Cell viability assay (CellTiter 96 AQueous One) in MDA-MB231. It is filed as cell-based. The settings on record: MDA-MB-231, MDA-MB231, 72 h. The procedure: Toxicity of DB-DBA (2-(3,4-dihydroxybenzoyloxy)-4,6-dihydroxybenzoic acid) was assessed in 96-well plate (Thermo Fisher, Walthman, Mass.) on 1×10^3 MDA-MB231 human breast cancer cells/well. DB-DBA was diluted in to concentrations from 500 to 0 ug/ml. The plate was incubated at 37° C. for 72 h. Cell viability was measured in a CellTiter 96® AQueous One Solution Cell Proliferation Assay (Promega, Madison, Wis.), according to the manufacturer's protocol. The absorbance at 490 nm is determined spectrophotometrically and IC50 was calculated to be 75 microgram/ml.

The subject of the next series is mice. The conditions noted are these: cited from earlier work.
Another series has as its system LNCaP human cell line. The settings on record: 48 h, read-out: EC50, loss of viability; cited from earlier work.
A further series has as its system OVCAR3 human cell line. The settings on record: OVCAR3, 48 h; read-out: EC50, loss of viability; cited from earlier work.
In series [11] the test system is HeLa, MCF7, HepG2, A549, LNCaP human cell lines. The settings on record: cited from earlier work.
In series [12] the test system is human lymphoblastoid cell line K562. The conditions noted are these: cited from earlier work.
Series [13] concerns retinal pigmented epithelial cells (ARPE-19). The settings on record: ARPE-19 normal cell line; cited from earlier work.
Series [14] relates to human lymphoblastoid TK6 cells. The settings on record: cited from earlier work.
Setting [15] is: 36 months storage at 20-25° C., air.

As to `O=c1c(O)c(-c2ccc(O)c(O)c2)oc2cc(O)cc(O)c12` [quercetin, 2-(3,4-dihydroxyphenyl)-3,5,7-trihydroxy-4H-chromen-4-one], the “RfD / toxicity in humans” value in [1] is listed as “more than 15 mg/kg/day”. For the same molecule, the “decrease of 2,4,6-THBA concentration by air substitution with nitrogen gas” value in series [2] came to 7 fold. The protocatechuic acid accumulation entry in series [2] (3 months storage at 20-25° C., air) was “about 0.1 % (w/w) protocatechuic acid/quercetin”; in series [2] (setting [15]), “about 0.9 % protocatechuic acid/quercetin”. Moreover, the “2,4,6-THBA accumulation” value in series [2] (6 months storage at 20-25° C., air) is given as “about 0.1 % (w/w) 2,4,6-trihydroxybenzoic acid/quercetin”; in series [2] (setting [15]) it was “about 0.5 % 2,4,6-trihydroxybenzoic acid/quercetin”. Besides, the protocatechuic acid formation result in series [2] (12 months storage, ambient conditions) was “above 0.4 % of quercetin content”. Also, the “2,4,6-THBA formation” value in series [2] (24 months storage, ambient conditions, air) is given as 0.33 % of quercetin content; in series [2] (air substituted with nitrogen gas (FIG. 19)) it was 0.05%. Further, the “2,4,6-THBA concentration relative to LC50 in 48 h Daphnia immobilization test (lower)” value in series [2] (Daphnia) is “more than 3 times”. Also, in [2] (Daphnia, 24 months), the “2,4,6-THBA concentration relative to LC50 in 48 h Daphnia immobilization test (higher)” value is listed as “about 2 times”. Moreover, the “2,4,6-THBA concentration” value in [2] (air substituted with nitrogen gas) turned out to be 0.5 mg/L. The “rate of 2,4,6-THBA accumulation” value in series [2] (room temperature, air) was ~0.15 % of quercetin (w/w) per 12 months. Further, in [2] (room temperature, air), the “rate of DB-DBA accumulation” value is ~1.25 % of quercetin (w/w) per 12 months. Besides, the elimination half-life in [3] (after ingestion in foods or supplements) was 1 to 2 h. Also, the bioavailability of quercetin in [3] is 0-50%.

For `O=C(O)c1c(O)cc(O)cc1O` [2,4,6-THBA, 2,4,6-trihydroxybenzoic acid], the “inhibitory effect on cyclin-dependent kinases CDK1, 2, 4, 6” value in series [4] is given as “strong inhibitory effect”. For the same molecule, the “LC50 in 48 h” value with Daphnia magna [5] (Daphna magna immobilization test) was 1.7 µg/mL (≈ 9.99 µM). Also, the concentration for a half-maximal effect (EC50) at 48 h in the series on Daphnia magna [5] is 1.7 µg/mL (≈ 9.99 µM). Further, the “toxicity relative to benzoic acid and its other derivatives” value in series [6] is on record as 70 times. The “toxicity relative to benzoic acid” value in the series with Daphnia magna [7] is “about 500 times”. In series [8], the “RfD of 2,4,6-THBA relative to benzoic acid” value is “more than 50 times”; the “RfD, estimated from Daphnia EC50” value is on record as 0.02 mg/kg/day; the “toxicity of 2,4,6-THBA relative to quercetin” value is reported as 700 times. Also, in the series on HCT-116 human cells, the “cytotoxicity compared to other salicylic acid metabolites” value is recorded as “more cytotoxic”. Further, the “EC50, suppression of growth” value in series [9] is 0.546 µg/mL.

Consider `O=C(Oc1cc(O)cc(O)c1C(=O)O)c1ccc(O)c(O)c1` [DB-DBA, 2-(3,4-dihydroxybenzoyloxy)-4,6-dihydroxybenzoic acid], for which the IC50 in series [10] came to 75 µg/mL (≈ 245 µM).

Turning to `O=C(O)c1ccccc1` [benzoic acid], in series [1], the “RfD / toxicity in humans” value is 1 mg/kg/day. Moreover, the “EC50 at 48 h” value with Daphnia magna [5] was 860 µg/mL (≈ 7040 µM). For the same molecule, in [9], the “EC50, suppression of growth” value was 36 µg/mL.

On to `O=C(O)c1ccc(O)c(O)c1` [PCA, 3,4-dihydroxybenzoic acid], for which the “hepatotoxicity (increase in ALT)” value in the series with mice (acute, 50 mg/kg intraperitoneally) is “the same effect”; with mice (subchronic, 0.1% in drinking water for 60 days) it was “causes hepatotoxicity”. For the same molecule, the EC50 in the series with LNCaP human cell line and in the series with OVCAR3 human cell line was 5 µM each time. In addition, the “concentration causing apoptosis (DNA fragmentation, caspase 3 activation)” value in series [11] is 5 to 8 µM.

Take `O=C(O)c1cc(O)c(O)c(OC(=O)c2cc(O)c(O)c(O)c2)c1` [DGA, digallic acid]: in [12], the “concentrations causing DNA fragmentation” value was 200-800 microgram/ml. The “IC50, cytotoxicity” value in [13] is given as 47 microgram/mil. Besides, in [14] (Bhouri et al., 2012a), the “IC50 by MTT assay” value is reported as 8.5 microgram/ml. Moreover, the “concentrations causing DNA fragmentation, caspase-3/8 activation and PARP cleavage” value in series [14] (TK6) is reported as 2.5-10 microgram/ml.
